A value given as a limit tells only on which side of the number the result lay.

System in one data set: not given
Assay: not given
Settings: not given
A word on the melting point: it is the temperature, or range, at which the solid turns liquid. As to `O=C1C2C3c4ccccc4C(c4ccccc43)C2C(=O)N1c1ccccc1` (stereo not drawn) [Compound 4r, 13-Phenyl-9,10-dihydro-9,10-[3,4]epipyrroloanthracene-12,14-dione], the melting point was in the range of 211 to 215 °C.
The same measure, in the same setting: for `O=C1C2C3c4ccccc4C(c4ccccc43)C2C(=O)N1c1ccc(F)cc1` (stereo not drawn) [Compound 4u, 13-(4-fluorophenyl)-9,10-dihydro-9,10-[3,4]epipyrroloanthracene-12,14-dione] the value was 250 to 253 °C.

The next data set has as its target T1, S100P-RAGE interaction (Homo sapiens, UniProt P25815).
T1 construct: His tag (N); made in house; host or cells: Escherichia coli BL21*
T1 sequence (P25815 1-95): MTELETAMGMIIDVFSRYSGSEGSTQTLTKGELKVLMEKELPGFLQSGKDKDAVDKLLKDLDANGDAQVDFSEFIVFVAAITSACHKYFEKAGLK
The data set can be described thus: ELISA of S100P-RAGE binding inhibition.
Settings: not given
The procedure:
The purchased computational screening hits were subjected to initial biological testing for inhibition of S100P-RAGE binding (ELISA), with cromolyn as positive control, using an adaptation of the reported ELISA for S100 family members.
Fig. 2 Effects of compounds 1–14 on S100P binding to RAGE. Human S100P (2 μM) coated wells were incubated with increasing concentrations of the compound tested, in triplicate, and exposed to human RAGE-Fc (100 nM) followed by goat anti-human secondary antibody to detect RAGE bound S100P. Data are compared to S100P/RAGE binding with no inhibitor (DMSO, 100%) and are presented as mean ± SEM; data is significant by one way ANOVA, where ∗ = p < 0.05, ∗∗ = p < 0.01 and ∗∗∗ = p < 0.001; n = 9 from 3 plates.
To generate human S100P recombinant protein, a pQE-30 ([…]) plasmid encoding S100P with N-terminal histidine tags (gifted by Dr Igor Barsukov, Liverpool University, UK), was transformed into BL21∗ competent Escherichia coli cells. Recombinant protein was purified using a HisTrap Nickel-nitrilotriacetic acid (Ni-NTA) agarose column (GE Healthcare, UK).
Purified recombinant S100P (2μM/well) in phosphate buffer (PBS; 137 mM NaCl, 2.7 mM KCl, 10 mM Na2HPO4, 1.8 mM KH2PO4, pH 7.4; supplemented with 1 mM CaCl2, 10 μM ZnCl2, and 0.5 mM MgCl2) was used for coating a 96 well plate (NunclonDelta, Fisher), and incubated overnight at 37 °C.
Following washing, S100P non-specific binding sites were blocked with 1% bovine serum albumin (BSA; Fisher, UK) in PBS for 2 h at 37 °C. Following three washes, S100P was incubated with increasing concentrations of compounds, in parallel to cromolyn and DMSO treated wells, all in triplicate. Then 30 nM recombinant human receptor for advanced glycation end products (rh/RAGE-Fc; R&D Systems) was added and incubated for 1 h at 37 °C. Controls included a negative control (S100P protein, no RAGE-Fc), a positive control (S100P protein plus RAGE), and vehicle control (0.001% DMSO in PBS) were included in each plate. After three washes in PBS, all wells were exposed to goat anti-human HRP conjugate (1:1000; Millipore) for 1 h at 37 °C in order to detect bound receptors. Subsequent to washes, wells were incubated for 20 min in the dark with 3,3′,5,5′-tetramethylbenzidene (TMB) substrate (Sigma, UK). Plates were read at 450 nm using a Multiskan Ascent spectrophotometer (Fisher Scientific, UK). All sample readings were normalized to the positive control (S100P plus RAGE-Fc). Statistical analysis was performed and graphs plotted using the GraphPad Prism software in the following way: One Way ANOVA was used to compare the effects of concentration of each compound to the effects of vehicle control (DMSO), and p values of <0.05 were considered statistically significant. A post hoc analysis was conducted using Dunnetts multiple comparisons test; results are indicated by ∗ = p < 0.05; ∗∗ = p < 0.01 and ∗∗∗ = p < 0.001.
For orientation: In an ELISA, binding on a coated surface is turned into a signal by an enzyme label.
By IC50 is commonly meant the concentration at which inhibition is half-maximal. `COc1ccc(/C=C2/C(=O)NC(=O)N(c3ccc(Cl)c(Cl)c3)C2=O)cc1C(=O)O` [Compound 3] came in with a half-maximal inhibitory concentration (IC50) of 0.514 nM.

The same data set, now with this note: ELISA.
Regarding `O=C1C2C3c4ccccc4C(c4ccccc43)C2C(=O)N1c1ccccc1` (stereo not drawn) [Compound 4r, 13-Phenyl-9,10-dihydro-9,10-[3,4]epipyrroloanthracene-12,14-dione], the “concentration with significant inhibition of S100P-RAGE binding” value is given as not above 100 nM.
The same measure, in the same setting: the figure for `O=C1C2C3c4ccccc4C(c4ccccc43)C2C(=O)N1c1ccc(F)cc1` (stereo not drawn) [Compound 4u, 13-(4-fluorophenyl)-9,10-dihydro-9,10-[3,4]epipyrroloanthracene-12,14-dione] is not above 100 nM.

The same data set, now with this note: Table 1; ELISA, human S100P 2 μM coated wells, human RAGE-Fc; read-out: Estimated IC50.
On to `O=C(O)CCNC(=O)Cn1nnc2ccccc2c1=O` [Compound 11], for which the IC50 is 6.89 nM.
As for `O=C(Cc1cc(O)n[nH]1)N/N=C/c1c(Cl)cccc1Cl` [Compound 7], the IC50 is 19 nM.
On the same count and under the same terms, for `Cc1nc2sc3c(c2c2nc(C(=O)NCCOCCO)nn12)C[C@@H](C)CC3` [Compound 13] the value was 126 nM.
For the compound `O=C(O)CNC(=O)CCCn1c(=O)[nH]c2ccccc2c1=O` [Compound 10], the IC50 is 42.6 nM.
Same read-out and setting: the figure for `Cc1ccc(-c2ccc(=O)n(CC(=O)Nc3ccc(-n4cnnn4)cc3)n2)cc1` [Compound 6] is 0.555 nM.
Turning to `COc1ccc(-c2noc(CCCC(=O)O)n2)cc1` [Compound 12], the IC50 was 264 nM.
Regarding `CCCN1CCc2c(sc3c2c(NCCc2ccccc2)nc2nnnn23)C1` [Compound 14], the IC50 is 77 nM.
The same measure, in the same setting: for `Nc1nnn(CC(=O)N/N=C/c2cccs2)n1` [Compound 9] the value was 7.7 nM; for `N#CCCn1cc(C(=O)Nc2ccc(C(=O)O)cc2)c(-c2ccccc2)n1` [Compound 5], 0.6 nM.

The same data set, now with this note: Table 2; ELISA, analog series of hit 4; read-out: Estimated IC50.
As to `O=C1C2C3c4ccccc4C(c4ccccc43)C2C(=O)N1c1ccccc1` (stereo not drawn) [Compound 4r, 13-Phenyl-9,10-dihydro-9,10-[3,4]epipyrroloanthracene-12,14-dione], the IC50 was 0.796 nM.
On to `O=C1C2C3c4ccccc4C(c4ccccc43)C2C(=O)N1c1ccc(F)cc1` (stereo not drawn) [Compound 4u, 13-(4-fluorophenyl)-9,10-dihydro-9,10-[3,4]epipyrroloanthracene-12,14-dione], for which the IC50 was 4.15 nM.

The same data set, now with this note: Table 2; concentration with significant inhibition of S100P-RAGE binding; asterisks = significance by one-way ANOVA.
As for `O=C1C2C3c4ccccc4C([N+](=O)[O-])(c4ccccc43)C2C(=O)N1c1ccc([N+](=O)[O-])cc1` (stereo not drawn) [Compound 4j, 9-Nitro-13-(4-nitrophenyl)-9,10-dihydro-9,10-[3,4]epipyrroloanthracene-12,14-dione], the ELISA inhibition result was “– (no significant inhibition below 1 μM)”.
Take `O=C1C2C3c4ccccc4C([N+](=O)[O-])(c4ccccc43)C2C(=O)N1c1cccc([N+](=O)[O-])c1` (stereo not drawn) [Compound 4d, 9-Nitro-13-(3-nitrophenyl)-9,10-dihydro-9,10-[3,4]epipyrroloanthracene-12,14-dione]: the ELISA inhibition result is “– (no significant inhibition below 1 μM)”.
On to `O=C1C2C3c4ccccc4C([N+](=O)[O-])(c4ccccc43)C2C(=O)N1c1ccccc1` (stereo not drawn) [Compound 4e, 9-Nitro-13-phenyl-9,10-dihydro-9,10-[3,4]epipyrroloanthracene-12,14-dione], for which the ELISA inhibition result was “– (no significant inhibition below 1 μM)”.
Regarding `O=C1C2C3c4ccccc4C([N+](=O)[O-])(c4ccccc43)C2C(=O)N1c1cccc(Cl)c1` (stereo not drawn) [Compound 4c, 13-(3-chlorophenyl)-9-nitro-9,10-dihydro-9,10-[3,4]epipyrroloanthracene-12,14-dione], the ELISA inhibition result was “– (no significant inhibition below 1 μM)”.
With `O=C(O)c1ccc(N2C(=O)C3C4c5ccccc5C(c5ccccc54)C3C2=O)cc1` (stereo not drawn) [Compound 4s, 4-(12,14-Dioxo-9,10-dihydro-9,10-[3,4]epipyrroloanthracen-13-yl)benzoic acid], the ELISA inhibition result is on record as “– (no significant inhibition below 1 μM)”.
Turning to `O=C1C2C3c4ccccc4C(c4ccccc43)C2C(=O)N1c1ccccc1` (stereo not drawn) [Compound 4r, 13-Phenyl-9,10-dihydro-9,10-[3,4]epipyrroloanthracene-12,14-dione], the ELISA inhibition is listed as 10 nM∗.
Compound `O=C1C2C3c4ccccc4C(c4ccccc43)C2C(=O)N1c1ccc(F)cc1` (stereo not drawn) [Compound 4u, 13-(4-fluorophenyl)-9,10-dihydro-9,10-[3,4]epipyrroloanthracene-12,14-dione] showed an ELISA inhibition of 10 nM∗.
As to `CCOC(=O)c1cccc(N2C(=O)C3C4c5ccccc5C(c5ccccc54)C3C2=O)c1` (stereo not drawn) [Compound 4n, Ethyl 3-(12,14-dioxo-9,10-dihydro-9,10-[3,4]epipyrroloanthracen-13-yl)benzoate], the ELISA inhibition result is “– (no significant inhibition below 1 μM)”.
`O=C1C2C3c4ccccc4C(c4ccccc43)C2C(=O)N1c1ccc(Cl)cc1` (stereo not drawn) [Compound 4v, 13-(4-chlorophenyl)-9,10-dihydro-9,10-[3,4]epipyrroloanthracene-12,14-dione]: the ELISA inhibition result is given as “– (no significant inhibition below 1 μM)”.
As for `O=C(O)c1cccc(N2C(=O)C3C4c5ccccc5C(c5ccccc54)C3C2=O)c1` (stereo not drawn) [Compound 4m, 3-(12,14-Dioxo-9,10-dihydro-9,10-[3,4]epipyrroloanthracen-13-yl)benzoic acid], the ELISA inhibition result was “– (no significant inhibition below 1 μM)”.
On the same count and under the same terms, the entry for `O=C1C2C3c4ccccc4C(c4ccccc43)C2C(=O)N1c1cccc([N+](=O)[O-])c1` (stereo not drawn) [Compound 4q, 13-(3-nitrophenyl)-9,10-dihydro-9,10-[3,4]epipyrroloanthracene-12,14-dione] is “– (no significant inhibition below 1 μM)”; for `O=C1C2C3c4ccccc4C([N+](=O)[O-])(c4ccccc43)C2C(=O)N1c1ccc(I)cc1` (stereo not drawn) [Compound 4k, 13-(4-iodophenyl)-9-nitro-9,10-dihydro-9,10-[3,4]epipyrroloanthracene-12,14-dione] it is “– (no significant inhibition below 1 μM)”.
As for `O=C1C2C3c4ccccc4C(c4ccccc43)C2C(=O)N1c1ccc([N+](=O)[O-])cc1` (stereo not drawn) [Compound 4w, 13-(4-nitrophenyl)-9,10-dihydro-9,10-[3,4]epipyrroloanthracene-12,14-dione], the ELISA inhibition entry was “– (no significant inhibition below 1 μM)”.
Turning to `O=C1C2C3c4ccccc4C(c4ccccc43)C2C(=O)N1c1ccc(I)cc1` (stereo not drawn) [Compound 4x, 13-(4-iodophenyl)-9,10-dihydro-9,10-[3,4]epipyrroloanthracene-12,14-dione], the ELISA inhibition result is given as “– (no significant inhibition below 1 μM)”.
Same read-out and setting: the entry for `O=C1C2C3c4ccccc4C([N+](=O)[O-])(c4ccccc43)C2C(=O)N1c1ccc(Cl)cc1` (stereo not drawn) [Compound 4i, 13-(4-chlorophenyl)-9-nitro-9,10-dihydro-9,10-[3,4]epipyrroloanthracene-12,14-dione] is “– (no significant inhibition below 1 μM)”; for `CC(C)(C)c1ccc(N2C(=O)C3C4c5ccccc5C([N+](=O)[O-])(c5ccccc54)C3C2=O)cc1` (stereo not drawn) [Compound 4l, 13-(4-(tert-butyl)phenyl)-9-nitro-9,10-dihydro-9,10-[3,4]epipyrroloanthracene-12,14-dione] it is “- (no significant inhibition below 1 μM)”.
On the same count and under the same terms, the entry for `O=C1C2C3c4ccccc4C(c4ccccc43)C2C(=O)N1c1cccc(Cl)c1` (stereo not drawn) [Compound 4p, 13-(3-chlorophenyl)-9,10-dihydro-9,10-[3,4]epipyrroloanthracene-12,14-dione] is “– (no significant inhibition below 1 μM)”; for `O=C1C2C3c4ccccc4C([N+](=O)[O-])(c4ccccc43)C2C(=O)N1c1ccc(F)cc1` (stereo not drawn) [Compound 4h, 13-(4-fluorophenyl)-9-nitro-9,10-dihydro-9,10-[3,4]epipyrroloanthracene-12,14-dione] it is “– (no significant inhibition below 1 μM)”.
For the compound `CC(C)(C)c1ccc(N2C(=O)C3C4c5ccccc5C(c5ccccc54)C3C2=O)cc1` (stereo not drawn) [Compound 4y, 13-(4-(tert-butyl)phenyl)-9,10-dihydro-9,10-[3,4]epipyrroloanthracene-12,14-dione], the ELISA inhibition entry is reported as “- (no significant inhibition below 1 μM)”.
With `CCOC(=O)c1ccc(N2C(=O)C3C4c5ccccc5C(c5ccccc54)C3C2=O)cc1` (stereo not drawn) [Compound 4t, Ethyl 4-(12,14-dioxo-9,10-dihydro-9,10-[3,4]epipyrroloanthracen-13-yl)benzoate], the ELISA inhibition result is reported as “– (no significant inhibition below 1 μM)”.
